Test results reported in BindingDB's records for doi:10.1021/acs.jnatprod.9b00663 (University of Utah, 2019).

Molecular target: Low molecular weight phosphotyrosine protein phosphatase (Homo sapiens) (UniProt P24666)
Assay: Inhibition of LMWPTP (unknown origin) using DiFMUP as substrate incubated for 30 mins followed by substrate addition at pH 6.5 by standard phosphatase assay based fluorescence analysis

Sequence of Low molecular weight phosphotyrosine protein phosphatase (Homo sapiens) (P24666 whole entry, looked up): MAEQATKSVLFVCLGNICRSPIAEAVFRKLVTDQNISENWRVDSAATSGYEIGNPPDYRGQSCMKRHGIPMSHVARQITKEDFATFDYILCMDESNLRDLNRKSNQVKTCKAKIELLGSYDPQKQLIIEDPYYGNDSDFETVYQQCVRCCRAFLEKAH

Row | IC50 [µM] | Structure (SMILES)
1 | > 100 | CC1(C)Cc2c(O)c(C=O)c3c(c2C1)C(=O)OC(O)C3 (configuration not stated) [Illudalic acid]
2 | > 100 | COc1c(C=O)c2c(c3c1CC(C)(C)C3)C(=O)OC(O)C2 (configuration not stated) [3-Hydroxy-6-methoxy-8,8-dimethyl-1-oxo-1,3,4,7,8,9-hexahydro-cyclopenta[h]isochromene-5-carbaldehyde]
